Test results from PubChem BioAssay AID652064 (Molecular Libraries Program, Specialized Chemistry Center, …, 2013).
The source made the active and inactive calls. The rule behind the calls is not given here.

test system: human cells, XBP1 mRNA qRT-PCR; experiment: compound effect on XBP1 transcript levels – cell-based, quantitative RT-PCR, medium throughput (AID 652064)

SMILES | IC50
CC(C)(C)c1ccc(C(=O)Nc2ccc(CC(=O)O)cc2)o1 | > 20 µM (inactive)
CCOc1ccc(-c2nc(CSCC(=O)NCc3ccco3)c(C)o2)cc1 | 7.45 µM (inactive)
Cc1ccc(NC(=O)c2cc3ccccc3oc2=O)cc1S(=O)(=O)N(C)C | > 20 µM (inactive)
Cc1ccc(NC(=O)O/N=C/c2c(C)nn(C(C)(C)C)c2C)cc1Cl | 10.1 µM (inactive)
Cc1nn(C(C)(C)C)c(C)c1/C=N/OC(=O)Nc1ccc(Cl)cc1 | 20.1 µM (inactive)
CC(C)(C)c1ccc(-c2noc(CCC(N)=O)n2)cc1 | > 20 µM (inactive)

Continued, values first:

IC50 | SMILES
6.85 µM (inactive) | C=CCn1c(C)cc(C2=NN=C(NCC)SC2)c1C
6.31 µM (inactive) | Cc1cc(C2=NNC(=NC3CC3)SC2)c(C)n1-c1ccccc1F
4.78 µM (inactive) | Cc1cc(C2=NNC(=NC3CC3)SC2)c(C)n1-c1ccccc1
8.67 µM (inactive) | Cc1cc(C(=O)COC(=O)c2ccccc2O)c(C)n1Cc1cccs1
10.2 µM (inactive) | CCN=C1NN=C(c2cc(C)n(Cc3ccco3)c2C)CS1
